# From patent publication US6399568B1, “Cyclic tetrapeptide derivatives and medicinal use thereof” (Japan Energy Corporation, priority 1997, dated 2002)
# Non-standard residues stand in square brackets, D forms with d. Residues, ends and D or L forms follow the SMILES beside them. *: point of attachment. Asu = N[C@@H](CCCCCC(=O)O)C(=O)O; NHOH = ON*
# System: mouse malignant melanoma B16/BL6 cell line
# Assay type: cell-based
# Conditions: 72 hours; read-out: 50% proliferation inhibiting concentration B16/BL6 (nM) mean
# Excerpt: In order to verify the action of the cyclic tetrapeptide derivative according to the present invention in inhibiting cell proliferation in cancerized cells, the action on the proliferation of the aforementioned B16/BL6 cells was investigated. The evaluation of cell proliferation rates was done utilizing a commercially available measuring kit, specifically, from Promega under the trade name CellTiter 96 Aqueous Non-Radioactive Proliferation Assay Kit. In the measuring kit, the amount of products through reduction of a reagent tetrazolium compound (3-(4,5-dimethylthiazol-2-yl)-5-(3-carboxymethoxyphenyl)-2-(4-sulfophenyl)-2H-tetrazolium, inner salt; MTS) by viable animal cells is determined by detecting spectrophotometrically the color generated from the products. Since the amount of products is proportional to the amount of viable cells, this kit is utilized to evaluate the amount of viable cells.
# According to the procedure of Test Example 1, B16/BL6 cells are inoculated in a 96 well microplate and cultured for 24 hours. […] Thereafter, culture is continued for additional 48 hours and 20 μl of a reagent solution in the aforementioned CellTiter 96 Aqueous Non-Radioactive Proliferation Assay Kit is then added. After incubation is continued at 37° C. for 1 hour, the amount of color generation is measured as an absorbance at 490 n musing a microplate reader.
# The amount of cell proliferation of a group to which a compound to be tested is added is expressed in a relative value as compared to the standard cell proliferation (100%) in a control group to which no compound to be tested is added. For each compound tested, the amounts of cell proliferation were measured at different concentrations of addition and the dependence of the quantitative cell proliferation on the concentration of addition was investigated.
# The test method was in accordance with the above-mentioned procedure, except that the period of incubation after the addition of a compound was 72 hours.
compound,measurement,value
"CC[C@H](C)[C@@H]1NC(=O)[C@@H](Cc2ccc(OC)cc2)NC(=O)[C@H](CCCCCC(=O)NO)NC(=O)[C@H]2CCCN2C1=O [HDA-31, cyclo(-L-Asu(NHOH)-D-Tyr(Me)-L-Ile-D-Pro-)] (cyclo([Asu](NHOH)[dY](Me)I[dP]))",IC50,5.43 nM
